SMILES strings stand for the structures.

The target in this assay is T1, glucocerebrosidase (Homo sapiens, UniProt P04062).
T1 sequence (P04062 40-536): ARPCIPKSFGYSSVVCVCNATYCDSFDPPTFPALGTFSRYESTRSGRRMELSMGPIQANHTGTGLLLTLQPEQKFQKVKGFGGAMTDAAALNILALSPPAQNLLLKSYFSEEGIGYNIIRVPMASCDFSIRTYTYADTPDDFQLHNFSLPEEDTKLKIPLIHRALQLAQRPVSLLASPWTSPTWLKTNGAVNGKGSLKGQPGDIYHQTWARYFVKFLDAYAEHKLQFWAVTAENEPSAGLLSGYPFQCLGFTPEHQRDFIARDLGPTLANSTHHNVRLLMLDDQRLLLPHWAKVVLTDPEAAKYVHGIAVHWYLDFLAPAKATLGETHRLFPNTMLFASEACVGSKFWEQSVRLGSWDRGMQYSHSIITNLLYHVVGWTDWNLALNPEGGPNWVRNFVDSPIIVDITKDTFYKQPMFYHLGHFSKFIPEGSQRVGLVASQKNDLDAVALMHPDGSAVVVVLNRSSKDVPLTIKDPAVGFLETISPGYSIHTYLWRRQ
Kind of assay: Glucocerebrosidase activity assay with blue substrate (4MU-Glc). It counts as biochemical. The note with it: Table 2; additional compounds, tested as described in Example 2. The method, then:
Example 2—Glucocerebrosidase Activity Assay with Blue Substrate
The compounds in DMSO solution 0.5 μL/well were transferred to a black 96-well plate (the final titration was 24 nM to 50 μM, 12 concentrations, 2× dilution). 33.5 μL enzyme solution (7.5 nM final concentration) was transferred to the wells. After 5 min of incubation at room temperature, the enzyme reaction was initiated by the addition of 33 μL/well blue substrate. Final concentration of the blue substrate (4MU-Glc) was 1.5 mM. The blue substrate reaction was terminated by the addition of 33 μL/well stop solution (1 M NaOH and 1 M glycine mixture, pH 10) after 30 min of incubation at 37° C. The fluorescence was then measured in the Biotek Synergy H1 multi-mode plate reader with Ex=365 nm and Em=440 nm.
Additional compounds were synthesized and tested for glucocerebrosidase modulatory activity as described in Example 1 and Example 2.
A word on the AC50: it is the concentration at which the activity in the assay is half-maximal. Usually Emax stands for the size of the effect at its maximum, as opposed to the concentration needed. In the case of `CCc1ccc(-c2nc(N(C)CCOc3ccc(C#N)cc3)c3cnn(CC)c3n2)cc1` [Compound 123], the AC50 turned out to be 3.16 µM and the Emax worked out at 105%.

For `CCc1ccc(-c2nc(N(C)CCOc3ccc(CN)cc3)c3cnn(CC)c3n2)cc1` [Compound 124], the AC50 worked out at 6.31 µM and the Emax was determined as 480%.

Take `CCn1ncc2c(N(C)CCOc3ccc(CNC(C)=O)cc3)nc(-c3cccnc3)nc21` [Compound 125]: the AC50 worked out at 6.31 µM and the Emax is 610%.

Regarding `CCCCCC(=O)NCc1ccc(OCCN(C)c2nc(-c3cccnc3)nc3c2cnn3CC)cc1` [Compound 126], the AC50 stood at 0.2 µM and the Emax worked out at 150%.

As to `CN(CCC(=O)Nc1ccccc1)c1nc(-c2cccnc2)nc2ccccc12` [Compound 127], the AC50 turned out to be 35.5 µM and the Emax was determined as 325%.

As for `CN(CCC(=O)Nc1ccccc1)c1nc(-c2cccnc2)nc2c1cnn2C` [Compound 128], the AC50 amounted to 44.7 µM and the Emax came to 275%.

On to `CN(C)c1ccc2c(-c3ccc(C(=O)NCCOCCOCCOCCOCCC(=O)NCCCCCC(=O)Nc4ccc(-c5nc(N(C)CCOc6ccccc6)c6ccccc6n5)cc4)cc3C(=O)[O-])c3ccc(=[N+](C)C)cc-3oc2c1` [Compound 135], for which the AC50 came out at 1.67 µM.

Consider `CCn1ncc2c(N(C)CCOc3ccc(C#N)cc3)nc(-c3ccsc3)nc21` [Compound 136], for which the AC50 is 2 µM and the Emax worked out at 138%.

As for `CCn1ncc2c(N(C)CCOc3ccc(CN)cc3)nc(-c3ccsc3)nc21` [Compound 137], the half-maximal activity concentration (AC50) is 2 µM and the Emax was found to be 200%.

As to `CN(CCOc1ccc2nccnc2c1)c1nc(-c2cccnc2)nc2ccccc12` [Compound 138], the AC50 amounted to 10 µM and the Emax is 875%.

Regarding `CCn1ncc2c(N(C)CCOc3ccc(CNC(=O)CNC(=O)OC(C)(C)C)cc3)nc(-c3cccnc3)nc21` [Compound 139], the AC50 is 6.31 µM and the Emax stood at 980%.

Regarding `CCn1ncc2c(N(C)CCOc3ccc(CNC(=O)CCNC(=O)OC(C)(C)C)cc3)nc(-c3cccnc3)nc21` [Compound 140], the AC50 amounted to 2.82 µM and the Emax was 980%.

`CCn1ncc2c(N(C)CCOc3ccc(CNC(=O)CCCCNC(=O)OC(C)(C)C)cc3)nc(-c3cccnc3)nc21` [Compound 141]: the AC50 is 0.5 µM and the Emax is 800%.

As for `CCc1cncc(-c2nc(N(C)CCOc3ccccc3)c3ccccc3n2)c1` [Compound 144], the AC50 turned out to be 3.16 µM and the Emax amounted to 700%.

Turning to `CN(CCOc1ccccc1)c1nc(-c2cnc3ccccc3c2)nc2ccccc12` [Compound 145], the AC50 is 1.6 µM and the Emax was 185%.

As for `CCn1ncc2c(N(C)CCOc3ccc(CNC(=O)CCCNC(=O)OC(C)(C)C)cc3)nc(-c3cccnc3)nc21` [Compound 146], the AC50 turned out to be 1.41 µM and the Emax stood at 940%.

As for `CN(CCOc1ccc2[nH]ccc2c1)c1nc(-c2cccnc2)nc2ccccc12` [Compound 147], the AC50 was determined as 4.47 µM and the Emax is 450%.

Regarding `c1cncc(-c2nc(N3CCc4cccnc4C3)c3ccccc3n2)c1` [Compound 148], the half-maximal activity concentration (AC50) is 35 µM and the Emax worked out at 285%.

For `CCn1ncc2c(N(C)CCOc3ccc(CNC(=O)CCCCNC(=O)OC(C)(C)C)cc3)nc(-c3ccsc3)nc21` [Compound 149], the AC50 was 0.4 µM and the Emax was 157%.

Turning to `CCN1Cc2nc(-c3cccnc3)nc(N(C)CCOc3ccccc3)c2C1` [Compound 150], the AC50 came out at 1.25 µM and the Emax is 135%.

As for `CN(CCOc1ccccc1)c1nc(-c2cccnc2)nc2c1cnn2-c1ccccc1` [Compound 151], the AC50 worked out at 2.5 µM and the Emax was 305%.

On to `CN(CCOc1ccccc1)c1nc(-c2cccnc2)nc2c1cnn2Cc1ccccc1` [Compound 152], for which the AC50 is 2 µM and the Emax is 425%.

Turning to `CN(CCOc1ccccc1)c1nc(-c2cccnc2)nc2c1oc1ccccc12` [Compound 153], the AC50 is 1.58 µM and the Emax was 178%.

For `c1ccc(O[C@H]2CCN(c3nc(-c4cccnc4)nc4ccccc34)C2)cc1` [Compound 154], the AC50 was determined as 4.47 µM and the Emax was found to be 190%.

As to `c1ccc(O[C@@H]2CCN(c3nc(-c4cccnc4)nc4ccccc34)C2)cc1` [Compound 155], the AC50 came to 1.78 µM and the Emax was 260%.

With `CCn1ncc2c(N3CC[C@H](Oc4ccccc4)C3)nc(-c3cccnc3)nc21` [Compound 156], the AC50 stood at 39.8 µM and the Emax turned out to be 220%.

Regarding `CCn1ncc2c(N3CC[C@@H](Oc4ccccc4)C3)nc(-c3cccnc3)nc21` [Compound 157], the AC50 was 22.4 µM and the Emax was 580%.

In the case of `CCn1ncc2c(N3CC[C@H](Oc4ccccc4)C3)nc(-c3cncc(C(F)(F)F)c3)nc21` [Compound 158], the AC50 turned out to be 39.8 µM and the Emax stood at 163%.

On to `CCn1ncc2c(N3CC[C@@H](Oc4ccccc4)C3)nc(-c3cncc(C(F)(F)F)c3)nc21` [Compound 159], for which the AC50 is 44.6 µM and the maximal response (Emax) came out at 242%.

For the compound `CCn1ncc2c(N3CC[C@H](Oc4ccccc4)C3)nc(-c3cncc(Cl)c3)nc21` [Compound 160], the AC50 worked out at 28.2 µM and the Emax amounted to 130%.

In the case of `CCn1ncc2c(N3CC[C@@H](Oc4ccccc4)C3)nc(-c3cncc(Cl)c3)nc21` [Compound 161], the AC50 was 39.8 µM and the Emax was determined as 190%.

With `CCn1ncc2c(N3CCC[C@H](Oc4ccccc4)C3)nc(-c3cccnc3)nc21` [Compound 163], the AC50 was found to be 25.1 µM and the Emax worked out at 475%.

As for `CCn1ncc2c(N3CCC[C@@H](Oc4ccccc4)C3)nc(-c3cccnc3)nc21` [Compound 164], the AC50 stood at 28.2 µM and the Emax was 425%.

In the case of `c1ccc(OC2CN(c3nc(-c4cccnc4)nc4ccccc34)C2)cc1` [Compound 165], the concentration at half-maximal activity (AC50) is 3.98 µM and the Emax stood at 305%.

Consider `c1ccc(OC2CCN(c3nc(-c4cccnc4)nc4ccccc34)CC2)cc1` [Compound 166], for which the AC50 was 6.31 µM and the Emax was 276%.

With `CN(CCOc1ccccc1)c1cc(N2CCC(O)CC2)nc(Cl)n1` [Compound 167], the AC50 came out at 28.2 µM and the Emax amounted to 250%.

With `CN(CCOc1ccccc1)c1cc(Cl)nc(-c2cccnc2)n1` [Compound 168], the half-maximal activity concentration (AC50) worked out at 4 µM and the Emax is 360%.

Consider `Cc1cc(-c2nc(N(C)CCOc3ccccc3)c3ccccc3n2)ccn1` [Compound 169], for which the AC50 came out at 15.8 µM and the Emax came to 191%.

Consider `CN(CCOc1ccccc1)c1cc(N2CCC(O)CC2)nc(-c2cccnc2)n1` [Compound 170], for which the AC50 amounted to 28.2 µM and the Emax was 740%.

Turning to `CN(CCOc1ccccc1)c1cc(N2CC[C@@H](O)C2)nc(-c2cccnc2)n1` [Compound 171], the AC50 came out at 5 µM and the Emax came out at 280%.

`CN(CCOc1ccccc1)c1cc(C2CC[C@H](O)C2)nc(-c2cccnc2)n1` (stereo partly drawn) [Compound 172]: the AC50 was found to be 8.9 µM and the Emax stood at 525%.

The values are drawn from patent US12291533B2, “Substituted fused pyrimidine compounds and uses thereof” (Northwestern University, priority 2017, dated 2025).
